Among the data in patent publication US20220281821A1, “INDAZOLE COMPOUNDS AND THEIR PHARMACEUTICAL COMPOSITIONS” (Jinan University, priority 2019, published 2022) are IC50 values, retold here.

Each structure is given as a SMILES string.

One assay addresses T1, BaF3-ETV6-NTRK2 (Homo sapiens, UniProt Q16620).
T1 construct: fused on or other part: P41212 (Transcription factor ETV6)
The assay is described as follows: Cell proliferation inhibition (CCK-8), BaF3-ETV6-NTRK2 stable strain. The class given is cell-based, mouse. The following applies: BaF3-ETV6-NTRK2, 72 hours. A digest of the protocol: (§1)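 Ba/F3 cells stably electroporated with ETV6-NTRK3, CD74-NTRK1 or ETV6-NTRK2, selected with G418 and grown without IL3, then cloned by limiting dilution.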

Another assay addresses T2, TRKB (Homo sapiens, UniProt Q16620).
T2 construct: purchased life technologies PV3616
Briefly: Z′-LYTE kinase activity assay, TRKB. The class given is biochemical. To be noted: ATP 25 uM. An excerpt:
(§2) Kinase activity assay: Z′-LYTE™ technology (detection by fluorescence, enzyme-conjugated format, based on the difference in sensitivity of phosphorylated and non-phosphorylated peptides to proteolytic cleavage) was applied, and using the principle of fluorescence resonance energy transfer (FRET), a Z′-LYTE™ FRET peptide substrate (Z′-LYTE™ Tyrosine 1 Peptide Substrate, Invitrogen, PV3190), and a secondary reaction were used to detect the inhibitory activity of the compounds on TRKs (TRK1, TRK2, TRK3) (life technologies, PV3144, PV3616, PV3617).
(§3) Enzymatic reaction: In a 384-well plate, 5 μL of an enzyme-substrate system (50 mM HEPES pH 7.5, 0.01% BRIJ-35, 10 mM MgCl2, 1 mM EGTA, 2 μM Tyr 01 Peptide Substrate) was added and 5 nL of compound (concentration gradient) was transferred thereto by using the echo520 ultramicro liquid pipetting system. […] After shaking and mixing, centrifuging was performed. A reaction was carried out at 30° C. in the dark for 1.5 hours.
(§4) The data were analyzed as follows:
(§5) Phosphorylation ratio=1−{(emission ratio×F100%−C100%)/[C0%−C100%+emission ratio×(F100%−F0%)]}×100;
(§6) Inhibition rate=100×(1−compound phosphorylation ratio/negative control phosphorylation ratio).
(§7) IC50 values were calculated by using GraphPad Prism 5.0 software.

Another assay addresses T3, BaF3-ETV6-NTRK3 (Homo sapiens, UniProt Q16288).
T3 construct: fused on or other part: P41212 (Transcription factor ETV6)
Briefly: Cell proliferation inhibition (CCK-8), BaF3-ETV6-NTRK3 stable strain. The class given is cell-based, mouse. To be noted: BaF3-ETV6-NTRK3, 72 hours. In short, it runs like this: as §1

Another assay deals with T4, BaF3-CD74-NTRK1 (Homo sapiens, UniProt P04629).
T4 construct: fused on or other part: P04233 (HLA class II histocompatibility antigen gamma chain)
T4 sequence (P04629 510-796 limits assumed): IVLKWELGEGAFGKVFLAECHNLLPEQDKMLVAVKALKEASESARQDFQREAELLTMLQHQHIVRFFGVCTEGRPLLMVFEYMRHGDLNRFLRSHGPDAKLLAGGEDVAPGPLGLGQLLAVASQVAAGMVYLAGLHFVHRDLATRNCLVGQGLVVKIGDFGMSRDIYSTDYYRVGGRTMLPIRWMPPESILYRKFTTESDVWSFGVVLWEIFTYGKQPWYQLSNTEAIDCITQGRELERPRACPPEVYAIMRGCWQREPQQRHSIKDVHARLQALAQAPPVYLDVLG
Briefly: Cell proliferation inhibition (CCK-8), BaF3-CD74-NTRK1 stable strain. The class given is cell-based, mouse. The following applies: BaF3-CD74-NTRK1, 72 hours. A digest of the protocol:
as §1

A further assay concerns the target T5, TRKA (Homo sapiens, UniProt P04629).
T5 construct: purchased life technologies PV3144
Briefly: Z′-LYTE kinase activity assay, TRKA. The class given is biochemical. The following applies: ATP 400 uM.
Source text: as §2, §3, §4, §5, §6, §7

The target in a further assay is T6, TRKC (Homo sapiens, UniProt Q16288).
T6 construct: purchased life technologies PV3617
T6 sequence (Q16288 32-839): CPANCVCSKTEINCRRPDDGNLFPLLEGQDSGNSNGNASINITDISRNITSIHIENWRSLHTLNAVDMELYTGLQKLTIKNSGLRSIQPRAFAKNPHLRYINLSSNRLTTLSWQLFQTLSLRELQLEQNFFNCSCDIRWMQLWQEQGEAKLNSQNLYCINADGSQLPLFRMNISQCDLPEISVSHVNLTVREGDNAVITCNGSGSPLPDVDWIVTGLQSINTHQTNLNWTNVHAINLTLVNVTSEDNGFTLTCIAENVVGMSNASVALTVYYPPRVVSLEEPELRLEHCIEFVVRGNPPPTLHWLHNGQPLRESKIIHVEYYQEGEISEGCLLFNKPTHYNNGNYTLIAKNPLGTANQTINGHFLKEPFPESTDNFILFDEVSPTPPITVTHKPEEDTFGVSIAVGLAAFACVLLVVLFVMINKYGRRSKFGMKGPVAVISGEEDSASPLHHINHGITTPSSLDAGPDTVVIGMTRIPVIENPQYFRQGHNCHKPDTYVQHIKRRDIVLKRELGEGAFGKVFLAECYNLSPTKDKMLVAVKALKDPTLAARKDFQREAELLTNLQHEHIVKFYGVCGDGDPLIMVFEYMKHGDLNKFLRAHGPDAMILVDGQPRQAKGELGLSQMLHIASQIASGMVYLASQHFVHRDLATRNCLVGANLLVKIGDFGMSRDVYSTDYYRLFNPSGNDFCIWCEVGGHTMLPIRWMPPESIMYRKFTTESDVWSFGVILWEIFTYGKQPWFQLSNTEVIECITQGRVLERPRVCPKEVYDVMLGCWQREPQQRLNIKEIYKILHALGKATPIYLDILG
The assay is described as follows: Z′-LYTE kinase activity assay, TRKC. The class given is biochemical. To be noted: ATP 50 uM.
Source text: as §2, §3, §4, §7

T5 sequence (P04629 440-796 limits assumed): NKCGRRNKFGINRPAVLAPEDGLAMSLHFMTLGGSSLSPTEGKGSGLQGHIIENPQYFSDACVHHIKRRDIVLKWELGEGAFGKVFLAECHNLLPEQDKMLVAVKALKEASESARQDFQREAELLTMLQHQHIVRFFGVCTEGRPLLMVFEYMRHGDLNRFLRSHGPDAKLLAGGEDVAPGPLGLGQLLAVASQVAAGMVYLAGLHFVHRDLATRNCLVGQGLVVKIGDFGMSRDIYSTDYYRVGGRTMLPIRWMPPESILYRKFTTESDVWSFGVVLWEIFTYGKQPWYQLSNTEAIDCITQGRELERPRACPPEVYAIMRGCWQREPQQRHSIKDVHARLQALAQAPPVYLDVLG
T1 sequence (Q16620 538-822 limits assumed): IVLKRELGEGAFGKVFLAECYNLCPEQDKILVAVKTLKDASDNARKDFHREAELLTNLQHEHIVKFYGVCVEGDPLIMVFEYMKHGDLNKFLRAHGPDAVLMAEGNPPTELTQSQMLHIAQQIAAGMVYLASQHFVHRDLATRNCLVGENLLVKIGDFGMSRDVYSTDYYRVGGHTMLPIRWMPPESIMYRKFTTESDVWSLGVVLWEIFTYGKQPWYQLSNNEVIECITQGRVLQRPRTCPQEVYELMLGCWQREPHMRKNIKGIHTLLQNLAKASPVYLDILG
T2 sequence (Q16620 32-822): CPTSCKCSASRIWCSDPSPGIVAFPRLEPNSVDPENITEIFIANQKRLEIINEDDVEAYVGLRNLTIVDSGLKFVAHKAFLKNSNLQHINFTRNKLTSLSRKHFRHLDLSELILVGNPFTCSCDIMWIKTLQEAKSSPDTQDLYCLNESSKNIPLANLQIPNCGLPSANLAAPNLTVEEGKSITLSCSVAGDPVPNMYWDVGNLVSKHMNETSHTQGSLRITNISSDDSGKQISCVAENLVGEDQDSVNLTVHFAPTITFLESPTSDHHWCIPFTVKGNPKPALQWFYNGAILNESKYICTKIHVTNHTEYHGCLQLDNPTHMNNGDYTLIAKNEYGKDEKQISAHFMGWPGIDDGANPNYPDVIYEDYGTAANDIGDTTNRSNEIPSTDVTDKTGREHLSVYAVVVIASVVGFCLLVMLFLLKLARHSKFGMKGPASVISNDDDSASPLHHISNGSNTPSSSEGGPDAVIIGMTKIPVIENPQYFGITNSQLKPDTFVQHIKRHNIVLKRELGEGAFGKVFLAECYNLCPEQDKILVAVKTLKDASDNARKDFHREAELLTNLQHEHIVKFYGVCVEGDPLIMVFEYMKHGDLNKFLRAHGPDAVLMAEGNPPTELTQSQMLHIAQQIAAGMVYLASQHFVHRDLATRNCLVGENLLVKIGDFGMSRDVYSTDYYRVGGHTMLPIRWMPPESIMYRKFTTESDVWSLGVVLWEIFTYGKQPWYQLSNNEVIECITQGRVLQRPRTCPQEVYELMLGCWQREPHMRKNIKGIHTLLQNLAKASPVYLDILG
T3 sequence (Q16288 whole entry, the tested form may be a part): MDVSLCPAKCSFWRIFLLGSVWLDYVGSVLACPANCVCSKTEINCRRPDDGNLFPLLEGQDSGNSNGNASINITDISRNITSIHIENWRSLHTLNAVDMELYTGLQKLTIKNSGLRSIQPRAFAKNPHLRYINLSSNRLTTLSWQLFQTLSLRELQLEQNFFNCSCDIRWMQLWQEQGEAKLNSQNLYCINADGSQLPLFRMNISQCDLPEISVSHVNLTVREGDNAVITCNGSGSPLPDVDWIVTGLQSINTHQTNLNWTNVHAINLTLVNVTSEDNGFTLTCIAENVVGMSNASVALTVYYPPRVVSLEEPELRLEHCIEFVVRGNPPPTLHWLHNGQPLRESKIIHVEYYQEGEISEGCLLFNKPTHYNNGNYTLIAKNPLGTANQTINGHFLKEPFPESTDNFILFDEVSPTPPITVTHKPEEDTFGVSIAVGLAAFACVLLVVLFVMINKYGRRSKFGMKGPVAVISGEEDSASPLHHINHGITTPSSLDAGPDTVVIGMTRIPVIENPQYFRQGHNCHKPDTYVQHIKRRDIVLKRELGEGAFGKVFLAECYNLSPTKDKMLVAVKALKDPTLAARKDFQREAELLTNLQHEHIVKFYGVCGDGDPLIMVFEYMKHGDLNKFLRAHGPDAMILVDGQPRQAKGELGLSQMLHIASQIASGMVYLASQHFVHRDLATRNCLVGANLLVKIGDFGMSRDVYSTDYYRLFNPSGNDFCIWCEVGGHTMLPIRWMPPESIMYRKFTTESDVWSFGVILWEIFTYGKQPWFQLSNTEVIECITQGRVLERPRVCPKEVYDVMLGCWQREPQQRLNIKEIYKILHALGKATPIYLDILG

As for `Fc1cccc(Cc2ccc3[nH]nc(/C=C/c4ccccn4)c3c2)c1F` [DYX-082, (E)-5-(2,3-difluorobenzyl)-3-(2-(pyridin-2-yl)vinyl)-1H-indazole], the half-inhibitory concentration (IC50) (as a rule, the concentration that inhibits the measured activity by half) came out at 248 nM against BaF3-ETV6-NTRK2; 67.8 nM against TRKB; 159 nM on BaF3-ETV6-NTRK3; 584 nM at BaF3-CD74-NTRK1; 15.2 nM against TRKA; 8.5 nM against TRKC.
Regarding `Fc1cccc(Cc2ccc3[nH]nc(C#Cc4ccccn4)c3c2)c1` [DYX-025, 5-(3-fluorobenzyl)-3-(pyridin-2-ylethynyl)-1H-indazole], the 50% inhibitory concentration (IC50) at BaF3-ETV6-NTRK2 turned out to be 2560 nM; at TRKB, 82 nM; against BaF3-ETV6-NTRK3 it was 917 nM; at BaF3-CD74-NTRK1, 2330 nM; on TRKA, 26 nM; at TRKC it was 12 nM.
On to `C(=C\c1n[nH]c2ccc(Cc3ccccc3)cc12)/c1ccccn1` [DYX-048, (E)-5-benzyl-3-(2-(pyridin-2-yl)vinyl)-1H-indazole], for which the IC50 at BaF3-ETV6-NTRK2 worked out at 168 nM; against TRKB it was 15.3 nM; against BaF3-ETV6-NTRK3, 959 nM; against BaF3-CD74-NTRK1, 803 nM; at TRKA it was 33.2 nM; on TRKC it was 9.7 nM.
Consider `Fc1ccc(Cc2ccc3[nH]nc(/C=C/c4ccccn4)c3c2)cc1F` [DYX-059, (E)-5-(3,4-difluorobenzyl)-3-(2-(pyridin-2-yl)vinyl)-1H-indazole], for which the half-maximal inhibitory concentration (IC50) on BaF3-ETV6-NTRK2 is 8820 nM; against TRKB, over 1000 nM; at BaF3-ETV6-NTRK3 it was 3250 nM; on BaF3-CD74-NTRK1, 7940 nM; against TRKA it was 250 nM; against TRKC, 160 nM.
Consider `N#Cc1cccc(Cc2ccc3[nH]nc(/C=C/c4ccccn4)c3c2)c1` [DYX-136X, (E)-3-((3-(2-(pyridin-2-yl)vinyl)-1H-indazol-5-yl)methyl)benzonitrile], for which the half-inhibitory concentration (IC50) is 1070 nM against BaF3-ETV6-NTRK2; 91 nM on TRKB; 733 nM against BaF3-ETV6-NTRK3; 603 nM on BaF3-CD74-NTRK1; 4.8 nM against TRKA; 5.8 nM at TRKC.
In the case of `Fc1cc(F)cc(Cc2ccc3[nH]nc(/C=C/c4ccccc4F)c3c2)c1` [DYX-10, (E)-5-(3,5-difluorobenzyl)-3-(2-fluorostyryl)-1H-indazole], the concentration for half-maximal inhibition (IC50) against BaF3-ETV6-NTRK2 was determined as 777 nM; against TRKB, 3.2 nM; against BaF3-ETV6-NTRK3, 394 nM; on BaF3-CD74-NTRK1, 630 nM; at TRKA, 9.2 nM; at TRKC, 18.8 nM.
Take `O=S(=O)(c1cc(F)cc(F)c1)c1ccc2[nH]nc(/C=C/c3ccccn3)c2n1` [DYX-150, (E)-5-((3,5-difluorophenyl)sulfonyl)-3-(2-(pyridin-2-yl)vinyl)-1H-pyrazolo[4,3-b]pyridine]: the IC50 against BaF3-ETV6-NTRK2 came to 163 nM; against TRKB it was 9.4 nM; against BaF3-ETV6-NTRK3 it was 120 nM; against BaF3-CD74-NTRK1, 65.2 nM; against TRKA it was 3.3 nM; on TRKC, 4.1 nM.
`Fc1cc(F)cc(Sc2ccc3[nH]nc(/C=C/c4ccccn4)c3c2)c1` [DYX-090, (E)-5-((3,5-difluorophenyl)thio)-3-(2-(pyridin-2-yl)vinyl)-1H-indazole]: the IC50 at BaF3-ETV6-NTRK2 came out at 295 nM; at TRKB, 79.9 nM; against BaF3-ETV6-NTRK3, 158 nM; at BaF3-CD74-NTRK1, 480 nM; against TRKA, 9.9 nM; against TRKC, 35.7 nM.
Take `Cc1cccc(/C=C/c2n[nH]c3ccc(Cc4cc(F)cc(F)c4)cc23)n1` [DYX-09, (E)-5-(3,5-difluorobenzyl)-3-(2-(6-methylpyridin-2-yl)vinyl)-1H-indazole]: the 50% inhibitory concentration (IC50) on BaF3-ETV6-NTRK2 stood at 98.4 nM; on TRKB it was 14.8 nM; against BaF3-ETV6-NTRK3, 168 nM; against BaF3-CD74-NTRK1, 69 nM; on TRKA it was 10.6 nM; on TRKC, 4.2 nM.
With `Fc1cc(F)cc(Cc2ccc3[nH]nc(C#Cc4ccccn4)c3c2)c1` [CCB-484, 5-(3,5-difluorobenzyl)-3-(pyridin-2-ylethynyl)-1H-indazole], the IC50 against BaF3-ETV6-NTRK2 amounted to 1970 nM; against TRKB, 83.8 nM; against BaF3-ETV6-NTRK3, 477 nM; on BaF3-CD74-NTRK1, 820 nM; at TRKA, 34 nM; on TRKC it was 11.8 nM.
Consider `Fc1cc(F)cc(CCc2ccc3[nH]nc(/C=C/c4ccccn4)c3c2)c1` [DYX-180, (E)-5-(3,5-difluorophenethyl)-3-(2-(pyridin-2-yl)vinyl)-1H-indazole], for which the IC50 on BaF3-ETV6-NTRK2 was determined as 694 nM; against TRKB it was 9.9 nM; at BaF3-ETV6-NTRK3, 415 nM; on BaF3-CD74-NTRK1 it was 498 nM; against TRKA it was 3.9 nM; at TRKC it was 4.7 nM.
With `Fc1cc(F)cc(Cc2ccc3[nH]nc(/C=C/c4cccnc4)c3c2)c1` [DYX-03, (E)-5-(3,5-difluorobenzyl)-3-(2-(pyridin-3-yl)vinyl)-1H-indazole], the 50% inhibitory concentration (IC50) came out at 157 nM at BaF3-ETV6-NTRK2; 10.9 nM on TRKB; 75.2 nM against BaF3-ETV6-NTRK3; 126 nM against BaF3-CD74-NTRK1; 4 nM against TRKA; 8.6 nM at TRKC.
Take `Fc1cc(Cc2ccc3[nH]nc(/C=C/c4ccccn4)c3c2)cc(F)c1F` [DYX-083, (E)-3-(2-(pyridin-2-yl)vinyl)-5-(3,4,5-trifluorobenzyl)-1H-indazole]: the IC50 at BaF3-ETV6-NTRK2 was 3020 nM; on TRKB, over 1000 nM; at BaF3-ETV6-NTRK3 it was 3310 nM; against BaF3-CD74-NTRK1, 7500 nM; against TRKA, 628 nM; at TRKC, 191 nM.
For the compound `Cc1cccc(Cc2ccc3[nH]nc(C#Cc4ccccn4)c3c2)c1` [DYX-137Q, 5-(3-methylbenzyl)-3-(pyridin-2-ylethynyl)-1H-indazole], the IC50 against BaF3-ETV6-NTRK2 is over 10000 nM; at TRKB, 397 nM; against BaF3-ETV6-NTRK3, over 10000 nM; against BaF3-CD74-NTRK1, over 10000 nM; against TRKA it was 213 nM; against TRKC, 91.1 nM.
For `CN(c1cc(F)cc(F)c1)c1ccc2[nH]nc(/C=C/c3ccccn3)c2c1` [DYX-139, (E)-N-(3,5-difluorophenyl)-N-methyl-3-(2-(pyridin-2-yl)vinyl)-1H-indazol-5-amine], the IC50 was found to be 1790 nM on BaF3-ETV6-NTRK2; 25.7 nM against TRKB; 1270 nM on BaF3-ETV6-NTRK3; 2360 nM against BaF3-CD74-NTRK1; 15 nM against TRKA; 18.1 nM against TRKC.
As to `Fc1cc(F)cc(Cc2ccc3[nH]nc(/C=C/c4ccncc4)c3c2)c1` [DYX-215, (E)-5-(3,5-difluorobenzyl)-3-(2-(pyridin-4-yl)vinyl)-1H-indazole], the half-maximal inhibitory concentration (IC50) at BaF3-ETV6-NTRK2 stood at 170 nM; at TRKB, 22.4 nM; on BaF3-ETV6-NTRK3 it was 110 nM; against BaF3-CD74-NTRK1, 147 nM; on TRKA it was 3.3 nM; on TRKC it was 20.9 nM.
On to `Fc1ccc(F)c([C@H]2CCCN2c2ccc3[nH]nc(/C=C/c4ccccn4)c3c2)c1` [DYX-170, (R,E)-5-(2-(2,5-difluorophenyl)pyrrolidin-1-yl)-3-(2-(pyridin-2-yl)vinyl)-1H-indazole], for which the half-inhibitory concentration (IC50) on BaF3-ETV6-NTRK2 turned out to be 242 nM; against TRKB it was 18.4 nM; on BaF3-ETV6-NTRK3 it was 167 nM; on BaF3-CD74-NTRK1 it was 99.4 nM; on TRKA it was 8.1 nM; on TRKC, 1.9 nM.
Consider `Fc1ccc(Cc2ccc3[nH]nc(C#Cc4ccccn4)c3c2)cc1` [DYX-027, 5-(4-fluorobenzyl)-3-(pyridin-2-ylethynyl)-1H-indazole], for which the IC50 on BaF3-ETV6-NTRK2 is over 10000 nM; against TRKB, over 1000 nM; against BaF3-ETV6-NTRK3, over 10000 nM; at BaF3-CD74-NTRK1, over 10000 nM; at TRKA it was over 1000 nM; against TRKC it was over 1000 nM.
Turning to `Fc1cc(F)cc(COc2ccc3[nH]nc(/C=C/c4ccccn4)c3c2)c1` [DYX-132, (E)-5-((3,5-difluorobenzyl)oxo)-3-(2-(pyridin-2-yl)vinyl)-1H-indazole], the IC50 at BaF3-ETV6-NTRK2 is 178 nM; on TRKB, 9.8 nM; at BaF3-ETV6-NTRK3 it was 96.2 nM; on BaF3-CD74-NTRK1, 156 nM; at TRKA, 3.3 nM; against TRKC it was 3 nM.
As for `O=C(Nc1ccc2[nH]nc(/C=C/c3ccccn3)c2c1)c1cc(F)cc(F)c1` [DYX-164, (E)-3,5-difluoro-N-(3-(2-(pyridin-2-yl)vinyl)-1H-indazol-5-yl)benzamide], the concentration for half-maximal inhibition (IC50) at BaF3-ETV6-NTRK2 worked out at 2580 nM; on TRKB, 741 nM; against BaF3-ETV6-NTRK3, 2240 nM; at BaF3-CD74-NTRK1, 1930 nM; against TRKA, 196 nM; on TRKC it was 226 nM.
